Reference: the supplement of paper PMC10307832

Experiments:
Experiment in all cases: relative viability (nuclei count vs DMSO), 5 days (fraction); higher = more cells survive
[1] = compound: CC1(C)CNc2cc(NC(=O)c3cccnc3NCc3ccncc3)ccc21 [Motesanib]
Outline: (§1)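 For viability, nuclei in each treated well were divided by nuclei in vehicle wells and the median across plates was taken. Lung cancer cell lines in 1536-well plates were pinned with five library-drug doses (not always all listed) spaced by √10, cultured 5 days without medium change, and imaged at 4× after Hoechst staining, with plates passing only at control CV below 25% and at least one doubling.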

[2] = compound: C[C@@]1(C(=O)Nc2ccc(F)nc2)CCCN1c1nc(Nc2cc(C3CC3)n[nH]2)c2cccn2n1
Outline: as §1

[3] = compound: CC1(C)CNc2cc(NC(=O)c3cccnc3NCc3ccncc3)ccc21 [Motesanib] + CC1(C)CCC(c2ccc(Cl)cc2)=C(CN2CCN(c3ccc(C(=O)NS(=O)(=O)c4ccc(N[C@H](CCN5CCOCC5)CSc5ccccc5)c(S(=O)(=O)C(F)(F)F)c4)cc3)CC2)C1 [Navitoclax] (partner 0.5 µM)
Outline: (§2)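 Lung cancer cell lines in 1536-well plates were dosed by pin tool the day after seeding, either with one drug alone or with a fixed anchor-drug dose plus five library-drug doses (not always all listed) in √10 steps. After 5 days, cells were fixed and their nuclei stained in one step (final 0.05% Triton X-100, 1% formaldehyde, 1 ug/ml Hoechst), then counted on 4× images. Relative viability is the nuclei count in treated wells divided by that in vehicle wells. Values are medians of duplicate plates.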

[4] = compound: C[C@@]1(C(=O)Nc2ccc(F)nc2)CCCN1c1nc(Nc2cc(C3CC3)n[nH]2)c2cccn2n1 + N=C(N)NC(=N)NCCc1ccccc1 [Phenformin] (partner 250 µM)
Outline: as §2

Cell Line	relative viability ([1]; 0.01 µM)	relative viability ([1]; 0.03162 µM)	relative viability ([1]; 0.1 µM)	relative viability ([1]; 0.3162 µM)	relative viability ([1]; 1 µM)	relative viability ([2]; 0.04 µM)	relative viability ([2]; 0.1265 µM)	relative viability ([2]; 0.4 µM)	relative viability ([2]; 1.265 µM)	relative viability ([3]; first compound 0.01 µM)	relative viability ([3]; first compound 0.03162 µM)	relative viability ([3]; first compound 0.1 µM)	relative viability ([3]; first compound 0.3162 µM)	relative viability ([3]; first compound 1 µM)	relative viability ([4]; first compound 0.04 µM)	relative viability ([4]; first compound 0.1265 µM)	relative viability ([4]; first compound 0.4 µM)	relative viability ([4]; first compound 1.265 µM)
NCI-H647	0.827	1	0.93	1.06	0.988	1.05	0.869	0.848	0.86	1.26	1.49	1.28	1.19	1.18	0.651	0.488	0.346	0.458
NCI-H2023	1.02	0.906	0.955	1.01	0.979	0.881	0.613	0.547	0.394	0.949	0.916	1.02	1.02	0.98	0.354	0.271	0.294	0.189
NCI-H23	1.02	0.915	0.758	1.08	1.04	0.788	0.501	0.523	0.553	0.901	0.552	–	0.779	0.826	0.703	0.648	0.533	0.704
NCI-H1944	0.946	0.961	0.914	1.05	0.989	0.768	0.75	0.63	0.663	1.06	1.03	1.07	1.04	1.15	0.169	0.153	0.136	0.133
NCI-H1793	0.865	1.02	0.867	0.963	0.967	0.974	0.738	0.67	1.04	0.594	0.445	0.41	0.583	0.33	0.322	0.286	–	0.306
NCI-H520	0.931	1.03	0.971	1.05	0.906	0.977	0.915	0.953	0.99	1.12	0.982	1.1	1.03	1.04	0.819	0.301	0.487	0.416
A549	0.951	0.958	1	1.01	1.02	0.869	0.693	0.509	0.589	1.19	1.23	1.17	1.34	1.32	0.131	0.155	0.101	0.281
NCI-H460	0.999	0.974	0.981	1.02	1	0.982	1.01	1.01	0.953	1.15	1.05	1.09	1.14	1.24	0.53	0.436	0.36	0.239
EKVX	0.919	1	1.01	0.928	1.08	0.963	0.762	0.733	0.815	0.88	1.11	1.06	0.989	0.961	0.204	0.215	0.218	0.221
EPLC-272H	0.918	1.04	0.761	1.04	0.976	1.04	0.645	0.744	0.764	1.16	0.905	1.3	1.04	1.26	0.315	–	0.251	0.275
NCI-H1395	0.814	0.84	0.95	0.866	0.924	0.916	0.825	0.922	0.755	1.22	1.06	1.27	1.17	1.27	0.428	0.42	0.5	0.481
NCI-H2126	1.03	1.04	1.01	1.04	1.07	0.882	0.614	0.553	0.599	0.821	0.84	0.874	0.878	0.813	0.459	0.293	0.314	0.293
LXF-289	0.991	0.999	1.02	1.15	1.03	1.03	0.978	0.997	1.03	0.923	0.957	0.931	0.955	0.951	0.528	0.472	0.484	0.48
NCI-H2009	1.02	0.993	1.08	1.02	0.964	1.06	1.03	0.936	1	1.12	1.19	1.15	1.21	1.18	0.539	0.493	0.479	0.481
NCI-H2405	0.676	0.853	0.975	1.06	1.01	0.917	0.816	0.739	0.671	–	0.863	0.856	0.892	0.965	0.351	0.273	0.226	0.276
NCI-H1755	1.01	0.989	1.03	1.07	1.03	1.02	0.875	0.92	0.958	0.938	0.966	1.02	0.991	1	0.638	0.55	0.53	0.547
HCC-78	0.891	0.957	0.957	0.92	1.03	0.968	0.686	0.496	0.44	0.817	0.862	0.825	0.818	0.947	0.798	0.452	0.346	0.319
LOU-NH91	0.94	0.982	1.12	0.993	0.995	0.94	0.94	0.894	0.841	0.774	0.638	0.741	0.703	0.769	0.673	0.646	0.596	0.608
